Assay results from patent US20040214784A1, “Permeable, water soluble, non-irritating prodrugs of chemotherapeutic agents with oxaalkanoic acids” (UNIVERSITY OF KENTUCKY RESEARCH FOUNDATION, priority 1999, published 2004).

Columns and labels:
[1] = Half-lives of hydrolysis of the prodrugs in phosphate buffer at pH 7.4
[2] = Half-lives of hydrolysis of the prodrugs in human serum
[3] = pH 7.4, Half-life of hydrolysis, Buffer, phosphate buffer at ph 7.4

Compound: O=C(COCCOCCO)OCC1CCC(n2cnc3c(=O)[nH]cnc32)O1 (stereo not drawn)
- half-life [1, 3]: 46 h
- half-life ([2]; Half-life of hydrolysis, Serum): 0.0917 ± 0.00833 h

Compound: COCCOCC(=O)OCC1CCC(n2cnc3c(=O)[nH]cnc32)O1 (stereo not drawn)
- half-life [1, 3]: 40 h
- half-life ([2]; Half-life of hydrolysis, Serum): 0.0367 h

Compound: Nc1ccn(C2CCC(COC(=O)COCCOCCO)O2)c(=O)n1 (stereo not drawn)
- half-life [1, 3]: 30 h
- half-life ([2]; Half-life of hydrolysis, Serum): 0.167 ± 0.0167 h

Compound: Cc1cn(C2CC(N=[N+]=[N-])C(COC(=O)COCCOCCO)O2)c(=O)[nH]c1=O (stereo not drawn)
- half-life [1, 3]: 21 h
- half-life ([2]; Half-life of hydrolysis, Serum): 0.333 ± 0.0167 h

Compound: COCCOCC(=O)OCC1OC(n2cc(C)c(=O)[nH]c2=O)CC1N=[N+]=[N-] (stereo not drawn)
- half-life [1, 3]: 13.3 ± 0.2 h
- half-life ([2]; Half-life of hydrolysis, Serum): 0.06 ± 0.00167 h

Compound: CC(C)c1nc(CN(C)C(=O)N[C@H](C(=O)N[C@@H](Cc2ccccc2)C[C@H](OC(=O)COCCOCCO)[C@H](Cc2ccccc2)NC(=O)OCc2cncs2)C(C)C)cs1
- half-life [1, 3]: 96 h
- half-life ([2]; Half-life of hydrolysis, Serum): 24 h

Compound: COCCOCC(=O)O[C@H](CN1CC[C@H]2CCCC[C@H]2[C@H]1C(=O)NC(C)(C)C)[C@H](Cc1ccccc1)NC(=O)[C@H](CC(N)=O)NC(=O)c1ccc2ccccc2n1
- half-life [1, 3]: 3.2 ± 0.5 h
- half-life ([2]; Half-life of hydrolysis, Serum): 16 ± 1 h

Compound: CC(C)(C)NC(=O)[C@@H]1[C@@H]2CCCC[C@@H]2CCN1C[C@@H](OC(=O)COCCOCCO)[C@H](Cc1ccccc1)NC(=O)[C@H](CC(N)=O)NC(=O)c1ccc2ccccc2n1
- half-life [1, 3]: 3.1 ± 0.1 h
- half-life ([2]; Half-life of hydrolysis, Serum): 6 ± 0.5 h

Compound: COCCOCC(=O)OCn1cc(F)c(=O)[nH]c1=O
- half-life [1, 3]: 1.47 h
- half-life ([2]; Half-life of hydrolysis, Serum): 0.1 h

Compound: COCCOCC(=O)OCn1cc(F)c(=O)n(COC(=O)COCCOC)c1=O
- half-life ([1]; pH 7.4, Half-life of hydrolysis, Buffer (to mono), phosphate buffer at ph 7.4, hydrolysis to mono): 1.47 h
- half-life ([2]; Half-life of hydrolysis, Serum (to mono), hydrolysis to mono): 0.00333 h

Compound: COCCOCC(=O)OCn1c(=O)[nH]cc(F)c1=O
- half-life [1, 3]: 9.1 h
- half-life ([2]; Half-life of hydrolysis, Serum): 0.00833 h

Compound: CC[C@@]1(OC(=O)COCCOC)C(=O)OCc2c1cc1n(c2=O)Cc2cc3ccccc3nc2-1
- half-life [1, 3]: 26 h
- half-life ([2]; Half-life of hydrolysis, Serum): 2 h

Compound: CC[C@@]1(OC(=O)COCCOCCO)C(=O)OCc2c1cc1n(c2=O)Cc2cc3ccccc3nc2-1
- half-life ([1]; pH 7.4): 30 h
- half-life [2]: 1.9 h

Compound: COCCOCC(=O)O[C@@H](C[C@H](Cc1ccccc1)NC(=O)[C@@H](NC(=O)N(C)Cc1csc(C(C)C)n1)C(C)C)[C@H](Cc1ccccc1)NC(=O)OCc1cncs1
- half-life [1, 3]: > 48 h
- half-life ([2]; Half-life of hydrolysis, Serum): 24 h

Compound: COCCOCC(=O)OCCOCn1cnc2c(=O)[nH]c(N)nc21
- half-life [1, 3]: 30 h
- half-life ([2]; Half-life of hydrolysis, Serum): 0.0917 h

Compound: COCCOCCOCC(=O)OCC1CCC(n2cnc3c(=O)[nH]cnc32)O1 (stereo not drawn)
- half-life [1, 3]: 30 h
- half-life ([2]; Half-life of hydrolysis, Serum): 0.02 h

Compound: COCCOCCOCC(=O)Nc1ccn(C2CCC(COC(=O)COCCOCCOC)O2)c(=O)n1 (stereo not drawn)
- half-life [1, 3]: 14 ± 1 h
- half-life ([2]; Half-life of hydrolysis, Serum): 0.583 ± 0.0833 h

Compound: COCCOCCOCC(=O)OCC1CCC(n2ccc(N)nc2=O)O1 (stereo not drawn)
- half-life [1, 3]: 24 h
- half-life ([2]; Half-life of hydrolysis, Serum): 0.075 h

Compound: COCCOCCOCC(=O)OCC1OC(n2cc(C)c(=O)[nH]c2=O)CC1N=[N+]=[N-] (stereo not drawn)
- half-life [1, 3]: 12.3 ± 0.1 h
- half-life ([2]; Half-life of hydrolysis, Serum): 0.4033 ± 0.00333 h

Compound: COCCOCCOCC(=O)O[C@H](CN1CC[C@H]2CCCC[C@H]2[C@H]1C(=O)NC(C)(C)C)[C@H](Cc1ccccc1)NC(=O)[C@H](CC(N)=O)NC(=O)c1ccc2ccccc2n1
- half-life [1, 3]: 3.5 ± 0.2 h
- half-life ([2]; Half-life of hydrolysis, Serum): 10 ± 1 h

Compound: COCCOCCOCC(=O)OCn1cc(F)c(=O)[nH]c1=O
- half-life [1, 3]: 3.73 h
- half-life ([2]; Half-life of hydrolysis, Serum): 0.15 h

Compound: COCCOCCOCC(=O)OCn1c(=O)[nH]cc(F)c1=O
- half-life [1, 3]: 7.28 h
- half-life ([2]; Half-life of hydrolysis, Serum): 0.0167 h

Compound: CC[C@@]1(OC(=O)COCCOCCOC)C(=O)OCc2c1cc1n(c2=O)Cc2cc3ccccc3nc2-1
- half-life ([1]; pH 7.4): 25 h
- half-life [2]: 2 h

Compound: COCCOCCOCC(=O)OCC(CO)OCn1cnc2c(=O)[nH]c(N)nc21 (stereo not drawn)
- half-life [1, 3]: 26 h
- half-life ([2]; Half-life of hydrolysis, Serum): 0.2 h

Compound: COCCOCCOCC(=O)OCC(COC(=O)COCCOCCOC)OCn1cnc2c(=O)[nH]c(N)nc21
- half-life [1, 3]: 10 h
- half-life ([2]; Half-life of hydrolysis, Serum): 0.617 h

Compound: COCCOCCOCC(=O)OCCOCn1cnc2c(=O)[nH]c(N)nc21
- half-life [1, 3]: 22 h
- half-life ([2]; Half-life of hydrolysis, Serum): 0.0167 h

Compound: COCCOCCOCC(=O)O[C@@H](C[C@H](Cc1ccccc1)NC(=O)[C@@H](NC(=O)N(C)Cc1csc(C(C)C)n1)C(C)C)[C@H](Cc1ccccc1)NC(=O)OCc1cncs1
- half-life [1, 3]: > 96 h
- half-life ([2]; Half-life of hydrolysis, Serum): > 48 h

Compound: COCCOCCOCC(=O)Oc1cc(/C=C\c2cc(OC)c(OC)c(OC)c2)ccc1OC
- half-life ([1]; pH 7.4): 10 h
- half-life [2]: 0.0333 h

Compound: O=C(O)COCC(=O)OCC1CCC(n2cnc3c(=O)[nH]cnc32)O1 (stereo not drawn)
- half-life [1, 3]: 9.4 ± 0.1 h
- half-life ([2]; Half-life of hydrolysis, Serum): 0.0667 ± 0.00833 h

Compound: COC(=O)COCC(=O)OCC1CCC(n2ccc(N)nc2=O)O1 (stereo not drawn)
- half-life [1, 3]: 10 ± 0.5 h
- half-life ([2]; Half-life of hydrolysis, Serum): 0.1 ± 0.00333 h

Compound: CC(C)c1nc(CN(C)C(=O)N[C@H](C(=O)N[C@@H](Cc2ccccc2)C[C@H](OC(=O)COCC(=O)O)[C@H](Cc2ccccc2)NC(=O)OCc2cncs2)C(C)C)cs1
- half-life [1, 3]: > 240 h
- half-life ([2]; Half-life of hydrolysis, Serum): 40 h

Compound: COC(=O)COCC(=O)O[C@@H](C[C@H](Cc1ccccc1)NC(=O)[C@@H](NC(=O)N(C)Cc1csc(C(C)C)n1)C(C)C)[C@H](Cc1ccccc1)NC(=O)OCc1cncs1
- half-life [1, 3]: 5.5 h
- half-life ([2]; Half-life of hydrolysis, Serum): 2.4 h

Compound: COC(=O)COCC(=O)O[C@H](CN1CC[C@H]2CCCC[C@H]2[C@H]1C(=O)NC(C)(C)C)[C@H](Cc1ccccc1)NC(=O)[C@H](CC(N)=O)NC(=O)c1ccc2ccccc2n1
- half-life [1, 3]: 2.5 h
- half-life ([2]; Half-life of hydrolysis, Serum): 4.5 h

Compound: CC[C@@]1(OC(=O)COCC(=O)OC)C(=O)OCc2c1cc1n(c2=O)Cc2cc3ccccc3nc2-1
- half-life ([1]; pH 7.4): 6.1 h
- half-life [2]: 0.0333 h

Compound: CN(C)CCOCCOC(=O)COCC(=O)O[C@H](CN1CC[C@H]2CCCC[C@H]2[C@H]1C(=O)NC(C)(C)C)[C@H](Cc1ccccc1)NC(=O)[C@H](CC(N)=O)NC(=O)c1ccc2ccccc2n1
- half-life [1, 3]: 7 h
- half-life ([2]; Half-life of hydrolysis, Serum): 25 h

Compound: CN(C)CCOC(=O)COCC(=O)O[C@H](CN1CC[C@H]2CCCC[C@H]2[C@H]1C(=O)NC(C)(C)C)[C@H](Cc1ccccc1)NC(=O)[C@H](CC(N)=O)NC(=O)c1ccc2ccccc2n1
- half-life [1, 3]: 10 h
- half-life ([2]; Half-life of hydrolysis, Serum): 35 h

Compound: CC[C@@]1(OC(=O)COCC(=O)OCCN(C)C)C(=O)OCc2c1cc1n(c2=O)Cc2cc3ccccc3nc2-1
- half-life ([1]; pH 7.4): 0.0833 h
- half-life [2]: < 0.0167 h

Compound: CN(C)CCOCCOC(=O)COCC(=O)OCC1CCC(n2cnc3c(=O)[nH]cnc32)O1 (stereo not drawn)
- half-life [1, 3]: 3.5 h
- half-life ([2]; Half-life of hydrolysis, Serum): 0.05 h

Compound: CC[C@@]1(OC(=O)COCC(=O)OCCOCCN(C)C)C(=O)OCc2c1cc1n(c2=O)Cc2cc3ccccc3nc2-1
- half-life ([1]; pH 7.4): 3 h
- half-life [2]: 0.667 h

Compound: CC(C)c1nc(CN(C)C(=O)N[C@H](C(=O)N[C@@H](Cc2ccccc2)C[C@H](OC(=O)COCC(=O)OCCOCCN(C)C)[C@H](Cc2ccccc2)NC(=O)OCc2cncs2)C(C)C)cs1
- half-life [1, 3]: 2.2 h
- half-life ([2]; Half-life of hydrolysis, Serum): 1 h

Compound: CC(C)OC(=O)COCC(=O)OCC1CCC(n2cnc3c(=O)[nH]cnc32)O1 (stereo not drawn)
- half-life [1, 3]: 10 h
- half-life ([2]; Half-life of hydrolysis, Serum): 0.0833 h

Compound: CC(C)OC(=O)COCC(=O)Nc1ccn(C2CCC(COC(=O)COCC(=O)OC(C)C)O2)c(=O)n1 (stereo not drawn)
- half-life [1, 3]: 5.6 h
- half-life ([2]; Half-life of hydrolysis, Serum): 0.162 h

Compound: CC(C)OC(=O)COCC(=O)OCC1CCC(n2ccc(N)nc2=O)O1 (stereo not drawn)
- half-life [1, 3]: 8.2 h
- half-life ([2]; Half-life of hydrolysis, Serum): 0.0217 h

Compound: CC(C)OC(=O)COCC(=O)Nc1ccn(C2CCC(CO)O2)c(=O)n1 (stereo not drawn)
- half-life [1, 3]: 18 h
- half-life ([2]; Half-life of hydrolysis, Serum): 3.4 h

Compound: CC(C)OC(=O)COCC(=O)O[C@H](CN1CC[C@H]2CCCC[C@H]2[C@H]1C(=O)NC(C)(C)C)[C@H](Cc1ccccc1)NC(=O)[C@H](CC(N)=O)NC(=O)c1ccc2ccccc2n1
- half-life [1, 3]: 5 h
- half-life ([2]; Half-life of hydrolysis, Serum): 10 h

Compound: CC(C)(C)NC(=O)[C@@H]1[C@@H]2CCCC[C@@H]2CCN1C[C@@H](OC(=O)COCC(=O)OC(C)(C)C)[C@H](Cc1ccccc1)NC(=O)[C@H](CC(N)=O)NC(=O)c1ccc2ccccc2n1
- half-life [1, 3]: 10 h
- half-life ([2]; Half-life of hydrolysis, Serum): 20 h

Compound: CC(C)(C)OC(=O)COCC(=O)OCC1CCC(n2ccc(N)nc2=O)O1 (stereo not drawn)
- half-life [1, 3]: 11 h
- half-life ([2]; Half-life of hydrolysis, Serum): 0.0283 h

Compound: CC(C)(C)OC(=O)COCC(=O)Nc1ccn(C2CCC(CO)O2)c(=O)n1 (stereo not drawn)
- half-life [1, 3]: 16 h
- half-life ([2]; Half-life of hydrolysis, Serum): 5 h

Compound: CC(C)(C)OC(=O)COCC(=O)Nc1ccn(C2CCC(COC(=O)COCC(=O)OC(C)(C)C)O2)c(=O)n1 (stereo not drawn)
- half-life [1, 3]: 6.2 h
- half-life ([2]; Half-life of hydrolysis, Serum): 0.173 h

Compound: COC(=O)COCC(=O)Oc1cc(/C=C\c2cc(OC)c(OC)c(OC)c2)ccc1OC
- half-life ([1]; pH 7.4): > 48 h
- half-life [2]: 0.0417 h

Compound: COc1ccc(/C=C\c2cc(OC)c(OC)c(OC)c2)cc1OC(=O)COCC(=O)O
- half-life ([1]; pH 7.4): 4 h
- half-life [2]: 0.0333 h

Compound: COc1ccc(/C=C\c2cc(OC)c(OC)c(OC)c2)cc1OC(=O)COCC(=O)OC(C)(C)C
- half-life [1, 3]: 8.5 h
- half-life ([2]; Half-life of hydrolysis, Serum): 0.123 h

Compound: Nc1nc2c(ncn2COCCOC(=O)COCC(=O)O)c(=O)[nH]1
- half-life [1, 3]: 40 h
- half-life ([2]; Half-life of hydrolysis, Serum): 25 h

Compound: CC(C)(C)OC(=O)COCC(=O)OCCOCn1cnc2c(=O)[nH]c(N)nc21
- half-life [1, 3]: 16 h
- half-life ([2]; Half-life of hydrolysis, Serum): 0.045 h
